Numbers after ± are expanded uncertainties.
Key:
[1] = 298.15 K; 101.33 kPa; Liquid
[2] = excess molar enthalpy (molar enthalpy of mixing); xn = mol fraction of the nth substance listed; settings: 298.15 K, 101.33 kPa, Liquid, Flow calorimetry

CCO [ethanol]
Settings | mass density [kg/m3]
[1] | 785.07 ± 0.33

CCCCCC [hexane] + CCO
[2]
Settings | excess molar enthalpy [kcal/mol]
x2 = 0.0544 | 0.0669 ± 0.0021
x2 = 0.1056 | 0.0992 ± 0.00311
x2 = 0.1538 | 0.115 ± 0.00359
x2 = 0.1994 | 0.126 ± 0.00382
x2 = 0.2426 | 0.132 ± 0.00406
x2 = 0.2835 | 0.136 ± 0.0043
x2 = 0.3592 | 0.139 ± 0.0043
x2 = 0.4277 | 0.136 ± 0.0043
x2 = 0.4596 | 0.134 ± 0.0043
x2 = 0.49 | 0.135 ± 0.0043
x2 = 0.5191 | 0.133 ± 0.00406
x2 = 0.5992 | 0.122 ± 0.00382
x2 = 0.6472 | 0.116 ± 0.00359
x2 = 0.7125 | 0.106 ± 0.00335
x2 = 0.8064 | 0.0848 ± 0.00263
x2 = 0.8997 | 0.0535 ± 0.0017
x2 = 0.9528 | 0.0291 ± 0.000956

CCN(CC)CC [triethylamine] + CCCCO
[2]
Settings | excess molar enthalpy [kcal/mol]
x2 = 0.0501 | -0.0212 ± 0.000717
x2 = 0.1 | -0.0787 ± 0.00239
x2 = 0.1502 | -0.13 ± 0.00406
x2 = 0.1999 | -0.156 ± 0.00478
x2 = 0.2536 | -0.196 ± 0.00598
x2 = 0.3001 | -0.228 ± 0.00717
x2 = 0.3499 | -0.266 ± 0.00813
x2 = 0.3999 | -0.282 ± 0.00884
x2 = 0.4499 | -0.304 ± 0.00932
x2 = 0.5 | -0.322 ± 0.01
x2 = 0.5499 | -0.331 ± 0.0103
x2 = 0.5999 | -0.336 ± 0.0103
x2 = 0.6499 | -0.33 ± 0.0103
x2 = 0.7001 | -0.315 ± 0.0098
x2 = 0.7501 | -0.292 ± 0.00908
x2 = 0.7999 | -0.259 ± 0.00813
x2 = 0.85 | -0.219 ± 0.00669
x2 = 0.8999 | -0.166 ± 0.00502
x2 = 0.9499 | -0.0879 ± 0.00263
x2 = 0.9792 | -0.0411 ± 0.00131

CCCCCC [hexane]
Settings | mass density [kg/m3]
[1] | 654.9 ± 0.47

CCN(CC)CC [triethylamine] + CCO
[2]
Settings | excess molar enthalpy [kcal/mol]
x2 = 0.1116 | -0.0893 ± 0.00287
x2 = 0.1621 | -0.134 ± 0.0043
x2 = 0.2096 | -0.163 ± 0.00502
x2 = 0.2542 | -0.197 ± 0.00598
x2 = 0.2963 | -0.225 ± 0.00693
x2 = 0.3361 | -0.243 ± 0.00765
x2 = 0.4093 | -0.285 ± 0.00884
x2 = 0.5056 | -0.319 ± 0.0098
x2 = 0.5623 | -0.329 ± 0.0103
x2 = 0.614 | -0.33 ± 0.0103
x2 = 0.7047 | -0.313 ± 0.0098
x2 = 0.7991 | -0.262 ± 0.00813
x2 = 0.8477 | -0.219 ± 0.00693
x2 = 0.8774 | -0.187 ± 0.00574
x2 = 0.9052 | -0.153 ± 0.00478
x2 = 0.9311 | -0.116 ± 0.00359
x2 = 0.9555 | -0.0767 ± 0.00239

CCN(CC)CC [triethylamine] + CCCCCC
[2]
Settings | excess molar enthalpy [kcal/mol]
x1 = 0.025 | 0.00134 ± 0.000502
x1 = 0.05 | 0.00368 ± 0.000526
x1 = 0.075 | 0.00468 ± 0.000526
x1 = 0.1 | 0.007 ± 0.000526
x1 = 0.15 | 0.0104 ± 0.000526
x1 = 0.2 | 0.013 ± 0.00055
x1 = 0.25 | 0.0152 ± 0.00055
x1 = 0.3 | 0.0168 ± 0.000574
x1 = 0.35 | 0.0182 ± 0.000621
x1 = 0.4 | 0.019 ± 0.000645
x1 = 0.45 | 0.0193 ± 0.000645
x1 = 0.5 | 0.0196 ± 0.000669
x1 = 0.6 | 0.019 ± 0.000645
x1 = 0.65 | 0.0173 ± 0.000598
x1 = 0.7 | 0.0162 ± 0.000574
x1 = 0.75 | 0.0139 ± 0.00055
x1 = 0.8 | 0.0122 ± 0.00055
x1 = 0.85 | 0.00927 ± 0.000526
x1 = 0.9 | 0.00667 ± 0.000526
x1 = 0.95 | 0.00323 ± 0.000526

CCCCCC [hexane] + CCCCO
[2]
Settings | excess molar enthalpy [kcal/mol]
x2 = 0.0199 | 0.0527 ± 0.00167
x2 = 0.0399 | 0.0685 ± 0.00215
x2 = 0.05 | 0.0738 ± 0.00232
x2 = 0.06 | 0.0783 ± 0.00239
x2 = 0.0799 | 0.087 ± 0.00263
x2 = 0.0999 | 0.0943 ± 0.00287
x2 = 0.1499 | 0.11 ± 0.00335
x2 = 0.2 | 0.123 ± 0.00382
x2 = 0.25 | 0.129 ± 0.00406
x2 = 0.2999 | 0.133 ± 0.00406
x2 = 0.35 | 0.134 ± 0.00406
x2 = 0.4001 | 0.131 ± 0.00406
x2 = 0.4501 | 0.126 ± 0.00406
x2 = 0.5 | 0.12 ± 0.00382
x2 = 0.55 | 0.112 ± 0.00359
x2 = 0.6001 | 0.102 ± 0.00311
x2 = 0.6501 | 0.0909 ± 0.00287
x2 = 0.7 | 0.0788 ± 0.00239
x2 = 0.7501 | 0.0665 ± 0.0021
x2 = 0.7999 | 0.0535 ± 0.0017
x2 = 0.85 | 0.0399 ± 0.00127
x2 = 0.8999 | 0.0261 ± 0.00086
x2 = 0.95 | 0.011 ± 0.00055

CCCCO [butan-1-ol]
Settings | mass density [kg/m3]
[1] | 805.74 ± 0.35

CCN(CC)CC [triethylamine]
Settings | mass density [kg/m3]
[1] | 722.56 ± 0.41

— the NIST ThermoML archive (doi:10.1016/j.fluid.2005.08.001)
